Test results taken from paper PMC7016908 (ACS Omega, 2020).
Where “and” joins values, the source holds several entries; their conditions need not be identical. Equal values may be shown once. Entries after “also recorded” stand apart in the source; their conditions may differ.

Columns and labels:
LSD-trained rats = conditions: ref [6],[7]; cited from earlier work
human 5-HT2A receptor [1] = target: T1, human 5-HT2A receptor (Homo sapiens, UniProt P28223); assay: biochemical; assay type: binding; conditions: for displacement of [3H]ketanserin from the human 5-HT2A receptor: at 10 μM concentration
T1 sequence (P28223 whole entry): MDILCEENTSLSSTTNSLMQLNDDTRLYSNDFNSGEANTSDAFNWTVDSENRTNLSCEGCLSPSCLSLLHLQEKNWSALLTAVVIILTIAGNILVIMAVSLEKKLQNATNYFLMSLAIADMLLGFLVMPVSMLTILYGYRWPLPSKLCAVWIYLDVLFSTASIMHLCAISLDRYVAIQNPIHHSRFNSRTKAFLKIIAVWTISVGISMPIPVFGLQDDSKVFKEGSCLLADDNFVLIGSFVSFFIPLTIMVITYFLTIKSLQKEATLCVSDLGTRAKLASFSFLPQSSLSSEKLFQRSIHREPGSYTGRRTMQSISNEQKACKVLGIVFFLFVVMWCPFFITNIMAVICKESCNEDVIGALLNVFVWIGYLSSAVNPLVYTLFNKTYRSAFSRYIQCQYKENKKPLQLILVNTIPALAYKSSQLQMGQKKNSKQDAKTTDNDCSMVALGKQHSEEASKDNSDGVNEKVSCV

human 5-HT2C receptor [2] = target: T2, human 5-HT2C receptor (Homo sapiens, UniProt P28335); assay: Radioligand displacement binding, [3H]mesulergine, HeLa-5-HT2C cell membranes; conditions: for Ki: [3H]mesulergine displacement, mean ± range of two independent assays; for 5-HT2A/2C: ratio of Ki 5-HT2A / Ki 5-HT2C; for selectivity for the 5-HT2C receptor: 5-HT2C over 5-HT2A
T2 sequence (P28335 33-458): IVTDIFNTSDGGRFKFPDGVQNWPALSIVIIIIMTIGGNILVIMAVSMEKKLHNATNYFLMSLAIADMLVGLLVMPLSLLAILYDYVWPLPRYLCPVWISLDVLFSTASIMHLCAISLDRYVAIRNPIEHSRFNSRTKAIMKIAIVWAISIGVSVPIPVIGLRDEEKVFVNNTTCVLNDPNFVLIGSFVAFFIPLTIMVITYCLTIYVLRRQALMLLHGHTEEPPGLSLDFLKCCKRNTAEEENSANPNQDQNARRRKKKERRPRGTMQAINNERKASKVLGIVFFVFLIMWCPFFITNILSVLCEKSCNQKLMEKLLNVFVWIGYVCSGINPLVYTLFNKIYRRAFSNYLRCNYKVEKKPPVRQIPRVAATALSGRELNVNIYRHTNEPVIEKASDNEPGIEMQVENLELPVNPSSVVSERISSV

human 5-HT2A receptor [3] = target: T1, human 5-HT2A receptor; assay: Functional Ca2+ mobilization fluorescence assay in CHO-5-HT2A cells; assay type: cell-based; conditions: for Emax at 100 µM: read-out: % Emax 5-HT2A, % maximum response (5-HT) at 100 μM; for agonist character at 5-HT2A receptor: in words
human 5-HT2C receptor [4] = target: T2, human 5-HT2C receptor; assay: Functional Ca2+ mobilization fluorescence assay in HeLa-5-HT2C cells; assay type: cell-based; conditions: for agonist character at 5-HT2C receptor: functional assay, in words; for Emax at 100 µM: read-out: % Emax 5-HT2C
[5] = hydrochlorides; ref [12],[13]; cited from earlier work
5-HT2A receptor [6] = conditions: ref Trachsel et al., 2009 [23]; cited from earlier work
5-HT2A receptor [7] = conditions: ref Trachsel et al., 2009 [23]; cited from earlier work; remark: listed apart in the source

## NCCc1c2c(cc3c1OCC3)OCC2 [2C-H-Fly]
LSD-trained rats
  drug discrimination response: positive drug discrimination response

## Cl.NCCc1ccc2oc3ccccc3c2c1 [Compound 1, 2-(Dibenzo[b,d]furan-2-yl)ethanamine Hydrochloride]
Human 5-HT2A receptor [1]
  Ki: > 10 µM
  displacement of [3H]ketanserin from the human 5-HT2A receptor: < 50%
Human 5-HT2C receptor [2]
  Ki at the human 5-HT2C receptor (in words): submicromolar
  5-HT2A/2C: > > 14
Human 5-HT2C receptor [2]; Ki 5-HT2C
  Ki: 737 nM
Human 5-HT2A receptor [3]
  EC50: 22.6 µM
  Emax at 100 µM: 66.1%
Human 5-HT2C receptor [4]
  agonist character at 5-HT2C receptor: extremely weak partial agonists
  Emax at 100 µM: 49.1%
[5]
  toxicity (in words): toxic

## COc1ccc2oc3ccccc3c2c1CCN.Cl [Compound 5, 2-(2-Methoxydibenzo[b,d]furan-1-yl)ethanamine Hydrochloride]
Human 5-HT2A receptor [1]
  Ki: 2.55 µM
  Ki at the h5-HT2A receptor (in words): low micromolar
Human 5-HT2C receptor [2]
  selectivity for the 5-HT2C receptor: > 70 fold
  5-HT2A/2C: 72
Human 5-HT2C receptor [2]; Ki 5-HT2C
  Ki: 35 nM and 35.3 nM
Human 5-HT2A receptor [3]
  EC50: 14.5 µM
  Emax at 100 µM: 59%
Human 5-HT2A receptor [3]; functional assay
  agonist character at 5-HT2A receptor: partial agonist
Human 5-HT2A receptor [3]; functional potency 5-HT2A vs 5-HT2C
  times weaker as agonist at 5-HT2A than at 5-HT2C: 70 times
Human 5-HT2C receptor [4]
  EC50: 222 ± 41 nM
  agonist character at 5-HT2C receptor: full agonists
  Emax at 100 µM: 106%

## Cl.NCCc1cccc2c1oc1ccccc12 [Compound 4, 2-(Dibenzo[b,d]furan-4-yl)ethanamine Hydrochloride]
Human 5-HT2A receptor [1]
  Ki: > 10 µM
  displacement of [3H]ketanserin from the human 5-HT2A receptor: < 50%
Human 5-HT2C receptor [2]
  Ki at the human 5-HT2C receptor (in words): submicromolar
  selectivity for the 5-HT2C receptor: > 70 fold
  5-HT2A/2C: > 71
Human 5-HT2C receptor [2]; Ki 5-HT2C
  Ki: 140 nM
Human 5-HT2C receptor [2]; pKi 5-HT2C
  Ki: 145 nM
Human 5-HT2A receptor [3]
  EC50: 3.33 ± 0.83 µM
Human 5-HT2A receptor [3]; % maximum response (5-HT) at 100 μM
  % Emax 5-HT2A: 88.21 ± 2.79%
Human 5-HT2A receptor [3]; functional assay
  EC50 at 5-HT2A receptor (in words): low micromolar
Human 5-HT2C receptor [4]
  EC50: 1380 ± 190 nM
  agonist character at 5-HT2C receptor: moderately potent full agonist activity; also recorded: full agonists
  Emax at 100 µM: 98%

## CC(N)Cc1ccc2oc3ccccc3c2c1.Cl (centres unmarked) [Compound 2, 1-(Dibenzo[b,d]furan-2-yl)propan-2-amine Hydrochloride]
Human 5-HT2A receptor [1]
  Ki: > 10 µM
  displacement of [3H]ketanserin from the human 5-HT2A receptor: < 50%
Human 5-HT2C receptor [2]
  Ki at the human 5-HT2C receptor (in words): submicromolar
  5-HT2A/2C: > > 21
Human 5-HT2C receptor [2]; Ki 5-HT2C
  Ki: 474 nM
Human 5-HT2A receptor [3]
  Emax at 100 µM: 64%
Human 5-HT2C receptor [4]
  EC50: 3520 ± 740 nM
  agonist character at 5-HT2C receptor: moderately potent full agonist activity
  Emax at 100 µM: 112%

## COc1cc(-c2ccccc2)c(OC)cc1CCN [2C-phenyl, 2-(2,5-dimethoxy-4-phenylphenyl)ethanamine]
5-HT2A receptor [6]
  pKi at the 5-HT2A receptor: 6.11
5-HT2A receptor [7]
  functional character at 5-HT2A receptor: antagonist

## COc1cc2c(cc1CCN)oc1ccccc12.Cl [Compound 3, 2-(2-Methoxydibenzo[b,d]furan-3-yl)ethanamine Hydrochloride]
Human 5-HT2A receptor [1]
  Ki: > 10 µM
  displacement of [3H]ketanserin from the human 5-HT2A receptor: < 50%
Human 5-HT2C receptor [2]
  Ki at the human 5-HT2C receptor (in words): submicromolar
  5-HT2A/2C: > 49
Human 5-HT2C receptor [2]; Ki 5-HT2C
  Ki: 204 nM
Human 5-HT2A receptor [3]
  EC50: 32.4 µM
  Emax at 100 µM: 58.2%
Human 5-HT2A receptor [3]; functional assay
  agonist character at 5-HT2A receptor: very weak partial agonist
Human 5-HT2C receptor [4]
  EC50: 53200 nM
  agonist character at 5-HT2C receptor: extremely weak partial agonists
  Emax at 100 µM: 54%
[5]
  toxicity (in words): toxic
